# Experimental data published in PMC3185947 (British Journal of Cancer, 2011).
# Marks after values point to notes of the source that are not given here.
# Test system: patients with previously treated advanced NSCLC
# Test: Erlotinib-related toxicities (worst grade per patient), NCI CTC Version 2.0
# Type: in vivo, human
smiles,measurement,setting,value
C#Cc1cccc(Nc2ncnc3cc(OCCOC)c(OCCOC)cc23)c1 [erlotinib],"Alopecia, grade 3–4",Total (N=42),0 (0) n (%)
same,"Alopecia, grade Any",Total (N=42),6 (14) n (%)
same,"Anorexia, grade 3–4",Total (N=42),1 (2) n (%)
same,"Anorexia, grade Any",Total (N=42),11 (26) n (%)
same,"Creatinine, grade 3–4",Total (N=42),1 (2) n (%)
same,"Creatinine, grade Any",Total (N=42),1 (2) n (%)
same,"Diarrhea, grade 3–4",Total (N=42),1 (2) n (%)
same,"Diarrhea, grade Any",Total (N=42),33 (79) n (%)
same,"Epistaxis, grade 3–4",Total (N=42),0 (0) n (%)
same,"Epistaxis, grade Any",Total (N=42),5 (12) n (%)
same,"Fatigue, grade 3–4",Total (N=42),3 (7) n (%)
same,"Fatigue, grade Any",Total (N=42),17 (40) n (%)
same,"Headache, grade 3–4",Total (N=42),1 (2) n (%)
same,"Headache, grade Any",Total (N=42),1 (2) n (%)
same,"Nausea, grade 3–4",Total (N=42),0 (0) n (%)
same,"Nausea, grade Any",Total (N=42),22 (52) n (%)
same,"Paronychia, grade 3–4",Total (N=42),1 (2) n (%)
same,"Paronychia, grade Any",Total (N=42),5 (12) n (%)
same,"Skin fissures, grade 3–4",Total (N=42),1 (2) n (%)
same,"Skin fissures, grade Any",Total (N=42),5 (12) n (%)
same,"Stomatitis, grade 3–4",Total (N=42),0 (0) n (%)
same,"Stomatitis, grade Any",Total (N=42),14 (33) n (%)
same,"Vomiting, grade 3–4",Total (N=42),0 (0) n (%)
same,"Vomiting, grade Any",Total (N=42),15 (36) n (%)
same,"Diarrhea, frequency",all 42 patients,79%
same,"Fatigue, frequency",all 42 patients,40%
same,"Nausea, frequency",all 42 patients,52 % of patients
same,"Stomatitis, frequency",all 42 patients,33%
same,"Vomiting, frequency",all 42 patients,36%
same,"Alopecia, grade 3–4",erlotinib 100–150 mg (N=4),0 (0) n (%)
same,"Alopecia, grade Any",erlotinib 100–150 mg (N=4),0 (0) n (%)
same,"Anorexia, grade 3–4",erlotinib 100–150 mg (N=4),0 (0) n (%)
same,"Anorexia, grade Any",erlotinib 100–150 mg (N=4),2 (50) n (%)
same,"Creatinine, grade 3–4",erlotinib 100–150 mg (N=4),0 (0) n (%)
same,"Creatinine, grade Any",erlotinib 100–150 mg (N=4),0 (0) n (%)
same,"Diarrhea, grade 3–4",erlotinib 100–150 mg (N=4),0 (0) n (%)
same,"Diarrhea, grade Any",erlotinib 100–150 mg (N=4),4 (100) n (%)
same,"Epistaxis, grade 3–4",erlotinib 100–150 mg (N=4),0 (0) n (%)
same,"Epistaxis, grade Any",erlotinib 100–150 mg (N=4),0 (0) n (%)
same,"Fatigue, grade 3–4",erlotinib 100–150 mg (N=4),0 (0) n (%)
same,"Fatigue, grade Any",erlotinib 100–150 mg (N=4),3 (75) n (%)
same,"Headache, grade 3–4",erlotinib 100–150 mg (N=4),0 (0) n (%)
same,"Headache, grade Any",erlotinib 100–150 mg (N=4),0 (0) n (%)
same,"Nausea, grade 3–4",erlotinib 100–150 mg (N=4),0 (0) n (%)
same,"Nausea, grade Any",erlotinib 100–150 mg (N=4),3 (75) n (%)
same,"Paronychia, grade 3–4",erlotinib 100–150 mg (N=4),0 (0) n (%)
same,"Paronychia, grade Any",erlotinib 100–150 mg (N=4),0 (0) n (%)
same,"Skin fissures, grade 3–4",erlotinib 100–150 mg (N=4),0 (0) n (%)
same,"Skin fissures, grade Any",erlotinib 100–150 mg (N=4),1 (25) n (%)
same,"Stomatitis, grade 3–4",erlotinib 100–150 mg (N=4),0 (0) n (%)
same,"Stomatitis, grade Any",erlotinib 100–150 mg (N=4),2 (50) n (%)
same,"Vomiting, grade 3–4",erlotinib 100–150 mg (N=4),0 (0) n (%)
same,"Vomiting, grade Any",erlotinib 100–150 mg (N=4),2 (50) n (%)
same,"Alopecia, grade 3–4",erlotinib 175–200 mg (N=13),0 (0) n (%)
same,"Alopecia, grade Any",erlotinib 175–200 mg (N=13),0 (0) n (%)
same,"Anorexia, grade 3–4",erlotinib 175–200 mg (N=13),0 (0) n (%)
same,"Anorexia, grade Any",erlotinib 175–200 mg (N=13),0 (0) n (%)
same,"Creatinine, grade Any",erlotinib 175–200 mg (N=13),1 (8) n (%)
same,"Diarrhea, grade 3–4",erlotinib 175–200 mg (N=13),0 (0) n (%)
same,"Diarrhea, grade Any",erlotinib 175–200 mg (N=13),9 (69) n (%)
same,"Epistaxis, grade 3–4",erlotinib 175–200 mg (N=13),0 (0) n (%)
same,"Epistaxis, grade Any",erlotinib 175–200 mg (N=13),0 (0) n (%)
same,"Fatigue, grade Any",erlotinib 175–200 mg (N=13),4 (31) n (%)
same,"Headache, grade 3–4",erlotinib 175–200 mg (N=13),0 (0) n (%)
same,"Headache, grade Any",erlotinib 175–200 mg (N=13),0 (0) n (%)
same,"Nausea, grade 3–4",erlotinib 175–200 mg (N=13),0 (0) n (%)
same,"Nausea, grade Any",erlotinib 175–200 mg (N=13),5 (38) n (%)
same,"Paronychia, grade 3–4",erlotinib 175–200 mg (N=13),0 (0) n (%)
same,"Paronychia, grade Any",erlotinib 175–200 mg (N=13),0 (0) n (%)
same,"Skin fissures, grade 3–4",erlotinib 175–200 mg (N=13),0 (0) n (%)
same,"Skin fissures, grade Any",erlotinib 175–200 mg (N=13),0 (0) n (%)
same,"Stomatitis, grade 3–4",erlotinib 175–200 mg (N=13),0 (0) n (%)
same,"Stomatitis, grade Any",erlotinib 175–200 mg (N=13),5 (38) n (%)
same,"Vomiting, grade 3–4",erlotinib 175–200 mg (N=13),0 (0) n (%)
same,"Vomiting, grade Any",erlotinib 175–200 mg (N=13),5 (38) n (%)
same,"Creatinine, grade 3–4","erlotinib 175–200 mg (N=13), non-cutaneous dose limiting toxicity reported",1 (8) ^a n (%)
